Experimental data as given in ChEMBL document CHEMBL1143256, “Design, synthesis and preliminary pharmacological evaluation of new piperidine and piperazine derivatives as cognition-enhancers” (2008).

What follows are molecules tested on Mus musculus (assay: Antiamnesic activity in sc dosed mouse after 30 mins by passive avoidance test). Details: 0.5 h, read-out: MED.
Type: functional
Work on `O=S(=O)(NCC1CCN(S(=O)(=O)c2ccc(F)cc2)CC1)c1ccc(F)cc1` yielded a minimal effective dose of 1 mg/kg. `CC(=O)N1CCN(C(=O)c2ccccc2)C(=O)C1` gave a minimal effective dose of 10 mg/kg. In the case of `CC(=O)NC1CCCN(S(=O)(=O)c2ccc(F)cc2)C1` (stereo unspecified), the minimal effective dose is reported as 1 mg/kg. Work on `CCC(=O)N1CCN(S(=O)(=O)c2ccc(F)cc2)CC1` yielded a minimal effective dose of 0.01 mg/kg. `CCC(=O)N1CCC(NS(=O)(=O)c2ccc(F)cc2)CC1` showed a minimal effective dose of 10 mg/kg. Work on `CCC(=O)N1CCN(C(=O)c2ccccc2)CC1` [SUNIFIRAM] yielded a minimal effective dose of 0.001 mg/kg. Molecule `CCC(=O)NCC1CCN(C(=O)c2ccccc2)CC1` has a minimal effective dose of 1 mg/kg. Molecule `CCC(=O)NC1CCN(S(=O)(=O)c2ccc(F)cc2)CC1` has a minimal effective dose of 0.1 mg/kg. For `CC(C)S(=O)(=O)NC1CCCN(C(=O)c2ccccc2)C1` (stereo unspecified), the minimal effective dose was 1 mg/kg. With `CCCN1CCN(S(=O)(=O)c2ccc(F)cc2)CC1` the minimal effective dose was 1 mg/kg. `CC(=O)NC1CCN(S(=O)(=O)c2ccc(F)cc2)CC1` [SAPUNIFIRAM] was tested, and the minimal effective dose was 0.01 mg/kg. With `CCC(=O)N1CCCC(NC(=O)c2ccccc2)C1` (stereo unspecified) the minimal effective dose was 1 mg/kg. Work on `CCC(=O)N1CCCC(NS(=O)(=O)c2ccc(F)cc2)C1` (stereo unspecified) yielded a minimal effective dose of 10 mg/kg. Work on `CCC(=O)N1CCN(Cc2ccccc2)C(=O)C1` yielded a minimal effective dose of 10 mg/kg. For `CC(=O)N1CCN(C(=O)c2ccccc2)CC1=O`, the minimal effective dose was 10 mg/kg. `CC(=O)N1CCN(S(=O)(=O)c2ccc(F)cc2)CC1` gave a minimal effective dose of 0.01 mg/kg. `CCC(=O)N1CCN(C(=O)c2ccccc2)CC1=O` showed a minimal effective dose of 10 mg/kg. `CCC(=O)N1CCN(Cc2ccccc2)CC1` showed a minimal effective dose of 10 mg/kg. In the case of `CCC(=O)NC1CCCN(S(=O)(=O)c2ccc(F)cc2)C1` (stereo unspecified), the minimal effective dose is reported as 1 mg/kg. In the case of `CCC(=O)NC1CCCN(C(C)=O)C1` (stereo unspecified), the minimal effective dose is reported as 1 mg/kg. `CC(=O)NCC1CCCN(S(=O)(=O)c2ccc(F)cc2)C1` (stereo unspecified) showed a minimal effective dose of 10 mg/kg. Work on `CC(=O)N1CCCC(NS(=O)(=O)c2ccc(F)cc2)C1` (stereo unspecified) yielded a minimal effective dose of 1 mg/kg. `CCC(=O)NC1CCN(C(=O)c2ccccc2)CC1` was tested, and the minimal effective dose was 0.1 mg/kg. `CCC(=O)NCC1CCCN(S(=O)(=O)c2ccc(F)cc2)C1` (stereo unspecified) showed a minimal effective dose of 10 mg/kg. `CCC(=O)N1CCN(S(=O)(=O)c2ccc(F)cc2)CC1=O` gave a minimal effective dose of 0.3 mg/kg. `CC(=O)N1CCN(C(=O)c2ccccc2)CC1` was tested, and the minimal effective dose was 10 mg/kg. `CC(C)S(=O)(=O)N1CCCC(NS(=O)(=O)c2ccc(F)cc2)C1` (stereo unspecified) was tested, and the minimal effective dose was 10 mg/kg. `CC(=O)N1CCN(S(=O)(=O)c2ccc(F)cc2)CC1=O` gave a minimal effective dose of 0.3 mg/kg. For `CC(C)S(=O)(=O)NC1CCCN(S(=O)(=O)c2ccc(F)cc2)C1` (stereo unspecified), the minimal effective dose was 1 mg/kg. Work on `CC(=O)N1CCC(NS(=O)(=O)c2ccc(F)cc2)CC1` yielded a minimal effective dose of 0.1 mg/kg. `CCC(=O)N1CCC(CNS(=O)(=O)c2ccc(F)cc2)CC1` showed a minimal effective dose of 1 mg/kg.
